# Like-named read-outs stand apart in the source and are kept apart here.
# Assays:
# physchem [1] = assay: physchem
# Method: Methomyl and oxamyl were added to various methanol:water solvent systems ranging from 100% CH3 OH to 40% CH3 OH:60% H2 O. The methomyl and oxamyl were dissolved separately or combined on a 1:1 weight ratio in the solvent systems at room temperature at a concentration exceeding the solubility limit at -6° C. Each sample was seeded with methomyl and/or oxamyl at -6° C. and allowed to crystallize until equilibrium was established. The supernatant liquid of each sample was assayed for methomyl and/or oxamyl by liquid chromatography.
# physchem [2] = conditions: -6° C.
# Method: Methomyl and oxamyl were added to various methanol:water solvent systems ranging from 100 wt. % CH3 OH to 30 wt. % CH3 OH:70 wt. % H2 O. […] The samples were equilibrated at -6° C. in a constant temperature freezer after which they were seeded with methomyl and oxamyl crystals to ensure crystallization of both materials. After crystal-liquid equilibrium was assured, liquid was removed at -6° C. and assayed for methomyl and oxamyl. Solids were also removed at -6° C., washed with hexane and dried. The solids were then dissolved in methanol to yield a 10 wt. % solution. This solution was evaluated by thin layer chromatography (TLC) to ensure the solids consisted of both methomyl and oxamyl.
# Solubility of Methomyl and Oxamyl 1:2.5 wt. ratio in CH3 OH:H2 O at -6° C.
# Example 3 was repeated by dissolving methomyl and oxamyl in a 1:2.5 weight ratio in the same solvent systems under the same conditions.
# [3] = 60% cyclohexanone, 10% methanol, 30% water, -6° C.; for Solubility, both actives in solvent: Methomyl: with oxamyl
# Method: Methomyl and/or oxamyl were added to a solvent system consisting of 60% cyclohexanone, 10% methanol and 30% water at room temperature at a concentration higher than the solubility limit at -6° C. The methomyl and oxamyl were added together, at weight ratios of 2:1, 1:1 and 1:2.5. The solutions were cooled to -6° C. and seeded with methomyl and/or oxamyl to initiate crystallization. The solutions remained at -6° C. until equilibrium was assured. The supernatant liquid in each sample was analyzed for methomyl and oxamyl by liquid chromatography.
# [4] = 30% cyclohexanone, 30% cyclohexanol, 30% water, 10% methanol, -6° C.; for Solubility, both actives in solvent: Methomyl: with oxamyl
# Method: Methomyl and Oxamyl Solubility In Cyclohexanone, Cyclohexanol, CH3 OH and H2 O at -6° C.
# Methomyl and oxamyl were dissolved separately and in weight ratios of 1:1, 2:1 and 1:2.5 methomyl to oxamyl in a solvent system consisting of 30 wt. % cyclohexanone, 30 wt. % cyclohexanol, 30 wt. % water and 10 wt. % methanol. These solutions were equilibrated at -6° C. and seeded with methomyl and/or oxamyl crystals. The samples of liquid and solids remained at -6° C. until solid-liquid equilibrium was assured. A liquid sample was removed from each at -6° C. and assayed for methomyl and/or oxamyl. Solids were also isolated at -6° C., washed, dried and dissolved in CH3 OH to yield a 10% solution which was analyzed by TLC to ensure both methomyl and oxamyl crystals were present in the solids of the combination sample. All such solids contained both oxamyl and methomyl.
# SOLUBILITY OF METHOMYL AND OXAMYL (2:1, 1:1 and 1:2.5 Wt.
# RATIOS) IN CYCLOHEXANONE, CYCLOHEXANOL, CH3 OH AND H2 O
# [5] = 80:20 wt acetone/H2O, -6° C.; for Solubility, both actives in solvent: Methomyl: with oxamyl
# Method: Solubility of Methomyl and Oxamyl 80:20 Wt. Ratio Acetone:H2 O
# Methomyl and oxamyl were dissolved in a solvent system consisting of 80 wt. % acetone and 20 wt. % water separately and in 1:1, 2:1 and 1:2.5 wt. ratios of methomyl and oxamyl. These solutions were equilibrated at -6° C. and were seeded with methomyl and/or oxamyl. They remained at -6° C. until solid-liquid equilibrium was assured. Liquid was removed from each sample at -6° C. and assayed for methomyl and oxamyl. Solids were also removed at -6° C., washed, dried and dissolved in methanol to yield a 10 wt. % solution which was evaluated by TLC for oxamyl and methomyl.
smiles,measurement,setting,value
CNC(=O)ON=C(C)SC [Methomyl],solubility,"physchem [1]; 40/60 ch3oh/h2o, Methomyl alone in solvent, alone, -6° C.",62 mg/mL
same,solubility,"physchem [1]; 40/60 ch3oh/h2o, both actives in solvent: Methomyl, with oxamyl 1:1 wt., 40/60 CH3OH/H2O, -6° C.",188 mg/mL
same,solubility,"physchem [1]; 50/50 ch3oh/h2o, Methomyl alone in solvent, alone, -6° C.",105 mg/mL
same,solubility,"physchem [1]; 50/50 ch3oh/h2o, both actives in solvent: Methomyl, with oxamyl 1:1 wt., 50/50 CH3OH/H2O, -6° C.",237 mg/mL
same,solubility,"physchem [1]; 60/40 ch3oh/h2o, Methomyl alone in solvent, alone, -6° C.",155 mg/mL
same,solubility,"physchem [1]; 60/40 ch3oh/h2o, both actives in solvent: Methomyl, with oxamyl 1:1 wt., 60/40 CH3OH/H2O, -6° C.",355 mg/mL
same,solubility,"physchem [1]; 70/30 ch3oh/h2o, Methomyl alone in solvent, alone, -6° C.",208 mg/mL
same,solubility,"physchem [1]; 70/30 ch3oh/h2o, both actives in solvent: Methomyl, with oxamyl 1:1 wt., 70/30 CH3OH/H2O, -6° C.",438 mg/mL
same,solubility,"physchem [1]; 80/20 ch3oh/h2o, Methomyl alone in solvent, alone, -6° C.",263 mg/mL
same,solubility,"physchem [1]; 80/20 ch3oh/h2o, both actives in solvent: Methomyl, with oxamyl 1:1 wt., 80/20 CH3OH/H2O, -6° C.",581 mg/mL
same,solubility,"physchem [1]; 90/10 ch3oh/h2o, Methomyl alone in solvent, alone, -6° C.",299 mg/mL
same,solubility,"physchem [1]; 90/10 ch3oh/h2o, both actives in solvent: Methomyl, with oxamyl 1:1 wt., 90/10 CH3OH/H2O, -6° C.",664 mg/mL
same,"Solubility, Methomyl alone in solvent","physchem [1]; alone, 100/0 CH3OH/H2O, -6° C.",30.7 gms/100 gms
same,Solubility when dissolved together in the solvents taught,physchem [1]; summary of Examples 2-7,increases in solubility occur
same,"Solubility, both actives in solvent: Methomyl","physchem [1]; with oxamyl 1:1 wt., 100/0 CH3OH/H2O, -6° C.",63.9 gms/100 gms
same,solubility,"physchem [2]; 30/70 ch3oh/h2o, both actives in solvent: Methomyl, with oxamyl, 1:2.5 wt., 30/70 CH3OH/H2O",156 mg/mL
same,solubility,"physchem [2]; 40/60 ch3oh/h2o, Methomyl alone in solvent, alone",62 mg/mL
same,solubility,"physchem [2]; 40/60 ch3oh/h2o, both actives in solvent: Methomyl, with oxamyl, 1:2.5 wt., 40/60 CH3OH/H2O",288 mg/mL
same,solubility,"physchem [2]; 50/50 ch3oh/h2o, Methomyl alone in solvent, alone",105 mg/mL
same,solubility,"physchem [2]; 50/50 ch3oh/h2o, both actives in solvent: Methomyl, with oxamyl, 1:2.5 wt., 50/50 CH3OH/H2O",411 mg/mL
same,solubility,"physchem [2]; 60/40 ch3oh/h2o, Methomyl alone in solvent, alone",155 mg/mL
same,solubility,"physchem [2]; 60/40 ch3oh/h2o, both actives in solvent: Methomyl, with oxamyl, 1:2.5 wt., 60/40 CH3OH/H2O",440 mg/mL
same,solubility,"physchem [2]; 70/30 ch3oh/h2o, Methomyl alone in solvent, alone",206 mg/mL
same,solubility,"physchem [2]; 70/30 ch3oh/h2o, both actives in solvent: Methomyl, with oxamyl, 1:2.5 wt., 70/30 CH3OH/H2O",220 mg/mL
same,solubility,"physchem [2]; 80/20 ch3oh/h2o, Methomyl alone in solvent, alone",263 mg/mL
same,solubility,"physchem [2]; 80/20 ch3oh/h2o, both actives in solvent: Methomyl, with oxamyl, 1:2.5 wt., 80/20 CH3OH/H2O",573 mg/mL
same,solubility,"physchem [2]; 90/10 ch3oh/h2o, Methomyl alone in solvent, alone",299 mg/mL
same,solubility,"physchem [2]; 90/10 ch3oh/h2o, both actives in solvent: Methomyl, with oxamyl, 1:2.5 wt., 90/10 CH3OH/H2O",699 mg/mL
same,"Solubility, Methomyl alone in solvent","physchem [2]; alone, 100/0 CH3OH/H2O",30.7 gms/100 gms
same,"Solubility, both actives in solvent: Methomyl","physchem [2]; with oxamyl, 1:2.5 wt., 100/0 CH3OH/H2O",71.1 gms/100 gms
same,"Solubility, Methomyl alone in solvent",[3]; alone,29.5 gms/100 gms solvent
same,"Solubility, both actives in solvent: Methomyl",[3]; ratio 1:1,46.2 gms/100 gms solvent
same,"Solubility, both actives in solvent: Methomyl",[3]; ratio 1:2.5,66.6 gms/100 gms solvent
same,"Solubility, both actives in solvent: Methomyl",[3]; ratio 2:1,64.8 gms/100 gms solvent
same,"Solubility, Methomyl alone in solvent",[4]; alone,24.5 gms/100 gms solvent
same,"Solubility, both actives in solvent: Methomyl",[4]; ratio 1:1,39.6 gms/100 gms solvent
same,"Solubility, both actives in solvent: Methomyl",[4]; ratio 1:2.5,40.2 gms/100 gms solvent
same,"Solubility, both actives in solvent: Methomyl",[4]; ratio 2:1,42.7 gms/100 gms solvent
same,"Solubility, Methomyl alone in solvent",[5]; alone,41.4 gms/100 gms solvent
same,"Solubility, both actives in solvent: Methomyl",[5]; ratio 1:1,67.0 gms/100 gms solvent
same,"Solubility, both actives in solvent: Methomyl",[5]; ratio 1:2.5,66.6 gms/100 gms solvent
same,"Solubility, both actives in solvent: Methomyl",[5]; ratio 2:1,64.8 gms/100 gms solvent
